Usually IC50 stands for the midpoint of a concentration-inhibition curve.

In the first assay the test system is IKKε-mediated phosphorylation of IRF3. Briefly: ELISA for in-situ phosphorylation of IRF3 (phospho-Ser396) in HEK293T cells cotransfected with IRF3 and IKKε. It counts as cell-based. Particulars: Homo sapiens, HEK-293T, 20 h, HEK293T cells, 20 hours; range given from about 1 μM to about 250 nM; read-out: IC50, in-situ IKKε-mediated phosphorylation of IRF3. Here is the method: HEK293T cells were cotransfected in a 10-cm dish with IRF3 and IKKε expression plasmids using Lipofectamine 2000 (Invitrogen, Carlsbad, Calif.). The following day, cells were replated at 20,000 per well in 96-well plates and treated with test compounds (compounds according to Formulae I and/or II) for 20 hours. Cell lysates were prepared and analyzed using an ELISA for phospho-Ser396 (anti-IRF3 capture antibody, Santa Cruz Biotechnology, Inc., Santa Cruz, Calif.; anti-p-Ser396 IRF3 detection antibody, Cell Signaling, Danvers, Mass.). pIRF3 levels in compound treated cells were normalized to DMSO treated cells (no compound). Cell viability was assayed in a parallel set of plates to monitor cytotoxic effects of the test compounds (CellTiter-Glo, Promega, Inc., Madison, Wis.). TBK1 activity was tested by Western blotting using a phospho-specific IRF7 antibody. Similar to above, HEK293T cells were transfected with IRF7 and TBK1 expression plasmids. Cells were seeded in 12-well plates at 150,000 per well and treated overnight with test compounds. Protein lysates were prepared and processed for Western blotting followed by detection using a phosphor-Ser477/Ser479 IRF7 antibody (BD Biosciences, San Jose, Calif.)
A general note: ELISA stands for enzyme-linked immunosorbent assay.
In the case of `COc1cc(-c2ccnc(Nc3ccc(CN4CCC4)nc3)n2)cc(C#N)c1OC1CCOCC1` [Example Compound 115, 5-(2-{[6-(Azetidin-1-ylmethyl)pyridin-3-yl]amino}pyrimidin-4-yl)-3-methoxy-2-(tetrahydro-2H-pyran-4-yloxy)benzonitrile], the half-inhibitory concentration (IC50) was 250 to 1000 nM.

`Cc1ccc(Nc2nccc(-c3ccc(O[C@@H]4CCN(C(=O)CO)C4)c(C#N)c3)n2)cn1` [Example Compound 118, 2-{[(3R)-1-(Hydroxyacetyl)pyrrolidin-3-yl]oxy}-5-{2-[(6-methylpyridin-3-yl)amino]pyrimidin-4-yl}benzonitrile]: the IC50 was 250 to 1000 nM.

Regarding `N#Cc1cc(-c2ccnc(Nc3ccnc(C(F)(F)F)c3)n2)ccc1O[C@@H]1CCN(C(=O)CO)C1` [Example Compound 122, 2-{[(3R)-1-(Hydroxyacetyl)pyrrolidin-3-yl]oxy}-5-(2-{[2-(trifluoromethyl)pyridin-4-yl]amino}pyrimidin-4-yl)benzonitrile], the concentration for half-maximal inhibition (IC50) was 250 to 1000 nM.

Staying with this assay, now noted: Homo sapiens, HEK-293T, 20 h, HEK293T cells, 20 hours; read-out: IC50, in-situ IKKε-mediated phosphorylation of IRF3.
For the compound `Cn1cc(Nc2nccc(-c3ccc(OC4CCOCC4)c(C#N)c3)n2)cn1` [Example Compound 97, 5-{2-[(1-Methyl-1H-pyrazol-4-yl)amino]pyrimidin-4-yl}-2-(tetrahydro-2H-pyran-4-yloxy)benzonitrile], the IC50 lay in the range of 1000 to 5000 nM. `CN1CCN(C(=O)c2ncc(Nc3nccc(-c4ccc(OC5CCOCC5)c(C#N)c4)n3)n2C)CC1` [Example Compound 103, 5-[2-({1-Methyl-2-[(4-methylpiperazin-1-yl)carbonyl]-1H-imidazol-5-yl}amino)pyrimidin-4-yl]-2-(tetrahydro-2H-pyran-4-yloxy)benzonitrile]: the IC50 is less than 100 nM. As for `COC1CN(C(=O)Cc2csc(Nc3nccc(-c4ccc(OC5CCOCC5)c(C#N)c4)n3)n2)C1` [Example Compound 105, 5-[2-({4-[2-(3-Methoxyazetidin-1-yl)-2-oxoethyl]-1,3-thiazol-2-yl}amino)pyrimidin-4-yl]-2-(tetrahydro-2H-pyran-4-yloxy)benzonitrile], the IC50 lay in the range of 1000 to 5000 nM. `Cc1ccc(Nc2nccc(-c3ccc(OCC4CC4)c(C#N)c3)n2)cn1` [Example Compound 112, 2-(Cyclopropylmethoxy)-5-{2-[(6-methylpyridin-3-yl)amino]pyrimidin-4-yl}benzonitrile]: the IC50 fell in the range of 100 to 250 nM.

Regarding `COc1cc(-c2ccnc(Nc3ccc(CN4CC(OC)C4)nc3)n2)cc(C#N)c1OC1CCOCC1` [Example Compound 116, 3-Methoxy-5-[2-({6-[(3-methoxyazetidin-1-yl)methyl]pyridin-3-yl}amino)pyrimidin-4-yl]-2-(tetrahydro-2H-pyran-4-yloxy)benzonitrile], the IC50 was 100 to 250 nM. As for `CN(C)c1ccc(Nc2nccc(-c3ccc(O[C@@H]4CCN(C(=O)CO)C4)c(C#N)c3)n2)cn1` [Example Compound 124, 5-(2-{[6-(Dimethylamino)pyridin-3-yl]amino}pyrimidin-4-yl)-2-{[1-(hydroxyacetyl)pyrrolidin-3-yl]oxy}benzonitrile], the IC50 lay in the range of 100 to 250 nM. Turning to `Cc1ccc(Nc2nccc(-c3ccc(OC4CCN(C(=O)[C@@H](C)O)CC4)c(C#N)c3)n2)cn1` [Example Compound 129, 2-({1-[(2R)-2-Hydroxypropanoyl]piperidin-4-yl}oxy)-5-{2-[(6-methylpyridin-3-yl)amino]pyrimidin-4-yl}benzonitrile], the IC50 lay in the range of 1000 to 5000 nM.

Regarding `Cc1ccc(Nc2nccc(-c3ccc(NC(=O)C(C)C)c(C#N)c3)n2)cn1` [Example Compound 136, N-(2-Cyano-4-{2-[(6-methylpyridin-3-yl)amino]pyrimidin-4-yl}phenyl)-2-methylpropanamide], the IC50 was in the range of 1000 to 5000 nM.

Consider `N#Cc1cc(-c2ccnc(Nc3ccc(C4CC4)nc3)n2)ccc1NC(=O)C1CC1` [Example Compound 140, N-(2-Cyano-4-{2-[(6-cyclopropylpyridin-3-yl)amino]pyrimidin-4-yl}phenyl)cyclopropanecarboxamide], for which the concentration for half-maximal inhibition (IC50) was less than 100 nM.

For the origin of these results see US20140288044A1, “COMPOSITIONS AND THERAPEUTIC USES OF IKK-RELATED KINASE EPSILON AND TANKBINDING KINASE 1 INHIBITORS” (Alzheimer's Institute of America, Inc., priority 2011, published 2014).
